How the values were obtained:
[1] = tested on: rabbit; conditions: Prenatal developmental toxicity study, new zealand white, Oral, Gavage/Intubation, dose end: 19 GD
[2] = tested on: rat; conditions: Prenatal developmental toxicity study; sprague dawley; Oral; Gavage/Intubation; dose end: 17 GD; group: maternal; systemic / in life observation / clinical signs / [other] + systemic / in life observation / clinical signs / ataxia + systemic / in life …
[3] = tested on: rat; conditions: Peri- and post-natal toxicity study (Segment III), sprague dawley, Oral, Gavage/Intubation, dose end: 25 PND
[4] = tested on: rat; conditions: Multigenerational reproductive toxicity study; sprague dawley; Oral; Gavage/Intubation; dose end: 1 generation; group: parental; systemic / in life observation / body weight / body weight gain + systemic / in life observation / clinical signs / skin discoloration + …
[5] = tested on: dog; conditions: Chronic toxicity, beagle, Oral, Feed, dose end: 394 day, group: systemic
[6] = tested on: dog; conditions: Subchronic oral toxicity in nonrodent, beagle, Feed, dose end: 98 day, group: systemic
[7] = tested on: rat; conditions: Subchronic oral toxicity in rodents, wistar, Feed, dose end: 90 day, group: systemic
[8] = tested on: rat; conditions: Multigenerational reproductive toxicity study, wistar, Oral, Feed, dose end: 2 generation
[9] = tested on: rat; conditions: Prenatal developmental toxicity study, wistar, Oral, Gavage/Intubation, dose end: 20 GD
[10] = tested on: mouse; conditions: Carcinogenicity, cd1, Oral, Feed, dose end: 78 week, group: systemic
[11] = tested on: mouse; conditions: Subchronic oral toxicity in rodents, cd1, Feed, dose end: 90 day, group: systemic, systemic / organ weight / liver / relative to body weight + systemic / organ weight / liver / absolute + systemic / clinical chemistry / …
[12] = tested on: rat; conditions: Prenatal developmental toxicity study, sprague dawley, Oral, Gavage/Intubation, dose end: 17 GD
[13] = tested on: dog; conditions: Subchronic oral toxicity in nonrodent, beagle, Capsule, dose end: 14 week, group: systemic
[14] = tested on: dog; conditions: Chronic toxicity, beagle, Oral, Capsule, dose end: 52 week, group: systemic
[15] = tested on: rat; conditions: Subchronic oral toxicity in rodents, sprague dawley, Gavage/Intubation, dose end: 14 week, group: systemic
[16] = tested on: rat; conditions: Multigenerational reproductive toxicity study, sprague dawley, Oral, Feed, dose end: 2 generation
[17] = tested on: rat; conditions: Combined chronic toxicity/carcinogenicity; sprague dawley; Oral; Feed; dose end: 104 week; group: systemic; systemic / in life observation / body weight / body weight + systemic / in life observation / body weight / body weight gain + systemic / …
[18] = tested on: rabbit; conditions: Prenatal developmental toxicity study, new zealand white, Oral, Gavage/Intubation, dose end: 18 GD
[19] = tested on: mouse; conditions: Prenatal developmental toxicity study, other, Oral, Gavage/Intubation, dose end: 15 GD
[20] = tested on: rat; conditions: Subchronic oral toxicity in rodents, sprague dawley, Feed, dose end: 90 day, group: systemic, systemic / in life observation / body weight / body weight gain + systemic / pathology microscopic / liver / hypertrophy + systemic / …
[21] = tested on: mouse; conditions: Carcinogenicity, cd1, Oral, Feed, dose end: 105 week, group: systemic
[22] = group: developmental, developmental / developmental landmark / incisor eruption / incisor eruption + developmental / developmental malformation / bone / delayed …
[23] = group: maternal, systemic / in life observation / body weight / body weight + systemic / in life observation / clinical signs / [other] + systemic / in life …
[24] = group: maternal, reproductive / offspring survival early / dead fetuses / dead fetuses
[25] = group: parental, systemic / in life observation / clinical signs / skin discoloration + systemic / in life observation / clinical signs / urine, …
[26] = systemic / clinical chemistry / alkaline phosphatase (alp/alk) / alkaline phosphatase (alp/alk) + systemic / clinical chemistry / gamma …
[27] = systemic / pathology microscopic / kidney / pigmentation
[28] = systemic / in life observation / body weight / body weight gain + systemic / in life observation / food consumption / food efficiency + …
[29] = systemic / hematology / hemoglobin (hgb) / hemoglobin (hgb)
[30] = systemic / in life observation / body weight / body weight + systemic / in life observation / body weight / body weight gain + systemic / in…
[31] = group: offspring, developmental / developmental malformation / bone / incomplete ossification + developmental / developmental landmark / preputial separation…
[32] = group: parental, systemic / in life observation / body weight / body weight gain
[33] = group: developmental, developmental / developmental malformation / bone / incomplete ossification
[34] = group: maternal, systemic / organ weight / liver / absolute + systemic / organ weight / liver / relative to body weight
[35] = systemic / clinical chemistry / alanine aminotransferase (alt/sgpt) / alanine aminotransferase (alt/sgpt) + systemic / clinical chemistry / …
[36] = group: developmental, systemic / in life observation / body weight / fetal weight
[37] = group: maternal, systemic / in life observation / body weight / body weight gain + systemic / in life observation / food consumption / food consumption
[38] = group: maternal, systemic / in life observation / body weight / body weight gain + systemic / in life observation / food consumption / food consumption + …
[39] = systemic / hematology / anemia / anemia - nos + systemic / hematology / erythrocyte (rbc) count differential / erythrocyte (rbc) + systemic…
[40] = systemic / organ weight / liver / absolute + systemic / organ weight / liver / relative to body weight + systemic / pathology microscopic / …
[41] = systemic / pathology microscopic / gallbladder / discolored + systemic / pathology microscopic / gallbladder / vacuolization cytoplasmic
[42] = systemic / in life observation / clinical signs / alopecia
[43] = systemic / pathology microscopic / kidney / calculus + systemic / pathology microscopic / kidney / hyperplasia + systemic / pathology …
[44] = group: offspring, systemic / in life observation / body weight / offspring (pup) weight
[45] = group: parental, systemic / in life observation / body weight / body weight gain + systemic / in life observation / food consumption / food consumption
[46] = group: parental, systemic / in life observation / food consumption / food consumption
[47] = group: developmental, developmental / developmental malformation / bone / incomplete ossification + developmental / developmental malformation / lung / abnormal …
[48] = group: maternal, reproductive / reproductive performance / resorptions / resorptions + systemic / in life observation / body weight / body weight gain + …
[49] = systemic / in life observation / mortality / mortality

## CCc1cc(S(=O)(=O)O)c2cc(C(C)C)cccc1-2 [Egualen]
[1]; [22]
  LEL: 135 mg/kg/day
  LOAEL: > 135 mg/kg/day
  NEL: 45 mg/kg/day
  NOAEL: ≥ 135 mg/kg/day
[1]; [23]
  LEL: 135 mg/kg/day
  LOAEL: > 135 mg/kg/day
  NEL: 45 mg/kg/day
  NOAEL: ≥ 135 mg/kg/day
[2]
  LEL: 77 mg/kg/day
  LOAEL: > 600 mg/kg/day
  NEL: 10 mg/kg/day
  NOAEL: ≥ 600 mg/kg/day
[3]; [24]
  LEL: 300 mg/kg/day
  LOAEL: > 300 mg/kg/day
  NEL: 55 mg/kg/day
  NOAEL: ≥ 300 mg/kg/day
[3]; [25]
  LEL: 55 mg/kg/day
  LOAEL: > 300 mg/kg/day
  NEL: 10 mg/kg/day
  NOAEL: ≥ 300 mg/kg/day
[4]
  LEL: 200 mg/kg/day
  LOAEL: > 200 mg/kg/day
  NEL: 50 mg/kg/day
  NOAEL: ≥ 200 mg/kg/day

## CO/N=C(/C1=NOCCO1)c1ccccc1Oc1ncnc(Oc2ccccc2Cl)c1F [Fluoxastrobin]
[5]; [26]
  LOAEL: 7.7 mg/kg/day
  NOAEL: 1.5 mg/kg/day
[5]; [27]
  LEL: 0.7 mg/kg/day
  NEL: < 0.7 mg/kg/day
[6]; systemic / in life observation / body weight / body weight gain + systemic / in life observation / food consumption / food efficiency
  LEL: 3 mg/kg/day
[6]; [28]
  LOAEL: 24.2 mg/kg/day
  NEL: 1.4 mg/kg/day
  NOAEL: 3 mg/kg/day
[7]; [29]
  LEL: 21.5 mg/kg/day
  NEL: < 21.5 mg/kg/day
[7]; [30]
  LOAEL: 580 mg/kg/day
  NOAEL: 70.4 mg/kg/day
[8]; [31]
  LEL: 862 mg/kg/day
  LOAEL: 862 mg/kg/day
  NEL: 77.4 mg/kg/day
  NOAEL: 77.4 mg/kg/day
[8]; [32]
  LEL: 665 mg/kg/day
  LOAEL: 665 mg/kg/day
  NEL: 70 mg/kg/day
  NOAEL: 70 mg/kg/day
[9]; [33]
  LEL: 300 mg/kg/day
  LOAEL: > 1000 mg/kg/day
  NEL: 100 mg/kg/day
  NOAEL: ≥ 1000 mg/kg/day
[9]; [34]
  LEL: 1000 mg/kg/day
  LOAEL: > 1000 mg/kg/day
  NEL: 300 mg/kg/day
  NOAEL: ≥ 1000 mg/kg/day
[10]; [35]
  LOAEL: > 776 mg/kg/day
  NEL: 19 mg/kg/day
  NOAEL: ≥ 776 mg/kg/day
[10]; systemic / in life observation / body weight / body weight + systemic / organ weight / liver / relative to body weight
  LEL: 135 mg/kg/day
[11]
  LEL: 81.1 mg/kg/day
  LOAEL: > 1300 mg/kg/day
  NEL: < 81.1 mg/kg/day
  NOAEL: ≥ 1300 mg/kg/day

## c1ccc2[nH]c(-c3cscn3)nc2c1 [Thiabendazole]
[12]; [36]
  LEL: 40 mg/kg/day
  LOAEL: 40 mg/kg/day
  NEL: 10 mg/kg/day
  NOAEL: 10 mg/kg/day
[12]; [37]
  LEL: 40 mg/kg/day
  LOAEL: 40 mg/kg/day
[12]; [38]
  NEL: 10 mg/kg/day
  NOAEL: 10 mg/kg/day
[13]; [39]
  LOAEL: > 150 mg/kg/day
  NEL: 35 mg/kg/day
  NOAEL: ≥ 150 mg/kg/day
[13]; systemic / in life observation / clinical signs / emesis + systemic / pathology microscopic / gallbladder / vacuolization cytoplasmic
  LEL: 75 mg/kg/day
[14]; [40]
  LOAEL: 40 mg/kg/day
  NOAEL: 10 mg/kg/day
[14]; [41]
  LEL: 10 mg/kg/day
  NEL: < 10 mg/kg/day
[15]; [42]
  LEL: 25 mg/kg/day
  NEL: < 25 mg/kg/day
[15]; [43]
  LOAEL: 100 mg/kg/day
  NOAEL: 25 mg/kg/day
[16]; [44]
  LEL: 90 mg/kg/day
  LOAEL: 90 mg/kg/day
  NEL: 30 mg/kg/day
  NOAEL: 30 mg/kg/day
[16]; [45]
  LOAEL: 30 mg/kg/day
  NOAEL: 10 mg/kg/day
[16]; [46]
  LEL: 10 mg/kg/day
  NEL: < 10 mg/kg/day
[17]
  LEL: 30.1 mg/kg/day
  LOAEL: 30.1 mg/kg/day
  NEL: 10.1 mg/kg/day
  NOAEL: 10.1 mg/kg/day
[18]; [47]
  LEL: 600 mg/kg/day
  LOAEL: 600 mg/kg/day
  NEL: 150 mg/kg/day
  NOAEL: 150 mg/kg/day
[18]; [48]
  LEL: 600 mg/kg/day
  LOAEL: 600 mg/kg/day
  NEL: 150 mg/kg/day
  NOAEL: 150 mg/kg/day
[19]; [36]
  LEL: 100 mg/kg/day
  LOAEL: 100 mg/kg/day
  NEL: 25 mg/kg/day
  NOAEL: 25 mg/kg/day
[19]; [37]
  LEL: 100 mg/kg/day
  LOAEL: 100 mg/kg/day
  NEL: 25 mg/kg/day
  NOAEL: 25 mg/kg/day
[20]
  LEL: 37 mg/kg/day
  LOAEL: 37 mg/kg/day
  NEL: 9.4 mg/kg/day
  NOAEL: 9.4 mg/kg/day
[21]; systemic / in life observation / body weight / body weight gain
  LOAEL: 92 mg/kg/day
[21]; [49]
  LEL: 6.95 mg/kg/day
  NEL: < 6.95 mg/kg/day
[21]; systemic / in life observation / mortality / mortality + systemic / in life observation / body weight / body weight gain + systemic / organ …
  NOAEL: 36.5 mg/kg/day

Source: EPA's ToxRefDB 2
